How the values were obtained:
[1] = Selectivity index, ratio of CC50 for African green monkey Vero cells to EC50 for SARS-COV-2; format: toxicity; settings: read-out: Ratio CC50/EC50
[2] = Antiproliferative against African green monkey Vero cells; format: toxicity, cell-based; settings: chlorocebus sabaeus
Influenza A virus = assay: Antiviral activity against Influenza A virus A/California/7/2009(H1N1) strain infected in A549 cells assessed as reduction in viral infection incubated for 48 hrs by qPCR analysis; format: functional, organism-based; settings: A549, 48 h
[3] = Cytotoxicity against African green monkey Vero cells by Celltiter blue assay; format: toxicity, cell-based; settings: chlorocebus sabaeus
[4] = Cytotoxicity against African green monkey Vero cells by MTT assay; format: toxicity, cell-based; settings: chlorocebus sabaeus
[5] = Selectivity index, ratio of CC50 for African green monkey Vero cells to EC50 for Dengue virus 2 infected in African green monkey Vero cells; format: toxicity; settings: read-out: Ratio CC50/EC50
SARS-CoV-2 = assay: Antiviral activity against SARS-COV-2 infected in African green monkey Vero cells assessed as reduction in virus induced cytopathic effect preincubated with cells for 15 mins followed by viral infection and measured after 2 days by RT-PCR analysis; format: functional, organism-based; settings: Severe acute respiratory syndrome coronavirus 2, Vero
[6] = Selectivity ratio of CC50 for human A549 cells to EC50 for Influenza A virus A/California/7/2009(H1N1) strain infected in A549 cells; format: toxicity, cell-based; settings: read-out: Ratio CC50/EC50
[7] = Selectivity index, ratio of CC50 for African green monkey Vero cells to EC50 for Zika virus GZ01/2016 infected in African green monkey Vero cells; format: toxicity; settings: read-out: Ratio CC50/EC50
dengue virus type 2 = assay: Antiviral activity against Dengue virus 2 infected in African green monkey Vero cells assessed as reduction in virus induced cytopathic effect preincubated with cells for 12 hrs followed by viral infection and measured after 48 hrs by qRT-PCR analysis; format: functional, organism-based
Zika virus = assay: Antiviral activity against Zika virus GZ01/2016 infected in African green monkey Vero cells assessed as reduction in virus induced cytopathic effect preincubated with cells for 12 hrs followed by viral infection and measured after 48 hrs by qRT-PCR analysis; format: functional, organism-based; settings: GZ01/2016, Vero
[8] = Antiproliferative against African green monkey Vero cells incubated for 40 hrs by Celltiter assay; format: toxicity, cell-based; settings: chlorocebus sabaeus
A549 = assay: Cytotoxicity against human A549 cells by MTT assay; format: functional
[9] = Selectivity index, ratio of CC50 for African green monkey Vero cells to EC50 for Zaire ebolavirus infected in African green monkey Vero cells; format: toxicity; settings: read-out: Ratio CC50/EC50
Zaire ebolavirus = assay: Antiviral activity against Zaire ebolavirus infected in African green monkey Vero cells assessed as reduction in virus induced cytopathic effect preincubated with cells for 1 hr followed by viral infection and measured after 48 hrs; format: functional, organism-based

CC[C@H]1OC(=O)[C@H](C)[C@@H](O[C@H]2C[C@@](C)(OC)[C@@H](O)[C@H](C)O2)[C@H](C)[C@@H](O[C@@H]2O[C@H](C)C[C@H](N(C)C)[C@H]2O)[C@](C)(O)C[C@@H](C)CN(C)[C@H](C)[C@@H](O)[C@]1(C)O [AZITHROMYCIN]
selectivity ratio [1]: > 19 | CC50 [2]: 810 µM | EC50 (Influenza A virus): 68 µM | CC50 [3]: > 40 µM | CC50 [4]: > 130 µM | selectivity ratio [5]: 218 | EC50 (SARS-CoV-2): 2.12 µM | EC90 (SARS-CoV-2; 48.25 h, time 2895 min): 8.65 µM | selectivity ratio [6]: > 8.8 | selectivity ratio [7]: 123 | EC50 (dengue virus type 2): 3.71 µM | EC50 (Zika virus): 6.59 µM | CC50 at 40 h [8]: 810 µM | CC50 (A549): > 600 µM | selectivity ratio [9]: > 25 | EC50 (Zaire ebolavirus): 5.1 µM
